# Reference: patent publication US10301298B2, “Methods, compounds, and compositions for the treatment of angiotensin-related diseases” (University of Southern California, priority 2013, dated 2019)
# Entries after “also recorded” stand apart in the source; their conditions may differ.
# Assays:
# Mas [1] = molecular target: T1, Mas (Homo sapiens, UniProt P04201); assay: Competition binding assay, displacement of fluorescent Ang(1-7) from Mas-transfected CHO cells; set-up: concentration or dose not given beside the values; conditions: CHO cells transfected with Human mas1, on ice
# T1 construct: expressed in transfected cells
# T1 sequence (P04201 1-325): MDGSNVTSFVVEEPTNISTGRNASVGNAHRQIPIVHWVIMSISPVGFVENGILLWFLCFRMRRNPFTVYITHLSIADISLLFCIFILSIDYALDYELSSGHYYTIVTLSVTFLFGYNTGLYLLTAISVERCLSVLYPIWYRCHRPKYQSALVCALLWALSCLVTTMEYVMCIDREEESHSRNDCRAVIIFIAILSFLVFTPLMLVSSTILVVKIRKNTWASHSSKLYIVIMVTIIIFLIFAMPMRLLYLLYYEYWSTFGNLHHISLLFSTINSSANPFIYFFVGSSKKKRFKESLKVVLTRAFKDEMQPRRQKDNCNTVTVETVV
# Method: CHO cells stably transfected with recombinant Human mas1 proto-oncogen driven by the human cytomegalovirus were grown to 80% confluency. The cells were detached with trypsin and harvested by centrifugation. Cells were washed three times in progressively colder buffers. The final number of cells per assay was 5×10^5. All subsequent steps were performed on ice. Test compound was added to the cells for 10 minutes prior to addition of fluorescently labeled A(1-7). After 10 minutes further incubation, the cells were washed to remove unbound A(1-7) and the fluorescence bound was read at an excitation of 490 nm and an emission of 520 nm.
# Mas [2] = molecular target: T1, Mas; assay: NO production in CHO cells stably transfected with Human Mas1; assay type: cell-based
# Method: Transfected cells that express Mas were used to identify and evaluate provided compounds as Mas agonists, by promoting NO production as readouts. CHO cells stably transfected with pTEJ-8 vector containing recombinant Human Mas1 clone were grown to confluency. Cells were washed three times for 30/5/5 minutes with prewarmed (37° C.) Tyrodes Salts (supplemented with 1 g/L NaHCO3, and 1.9 g/L d-Glucose). Cells were incubated for a short time in 700 μL of supplemented Tyrodes salts containing 10 μM PTIO, 100 μM DAN, and 1 mM L-arginine. When using antagonist for competition assays, cells were exposed to the inhibitor at 1×10^−7 M for 15 minutes, before additional drugs are added.
# Chemicals (10^−8 to 10^−6 M or the maximum concentration found not to cause cytotoxicity) to be screened were added to the cell medium and the plates were agitated for 1 minute before being placed into the incubator for 2 hours. After 2 hours, cellular supernatants were transferred to opaque 96 well plates, and the fluorescence intensity was recorded at an ex/em of 380/425.
# db/db mice = assay: Bone marrow cell counts and progenitor colonies in db/db mice; assay type: in vivo; conditions: 500 mcg/kg/day subcutaneously, 14 days
# Method: The femurs and tibia were collected from db/db mice treated 500 mcg/kg/day Ang(1-7) or Compound 7 subcutaneously for 14 days were euphanized and the bone marrow were collected by flushing with PBS containing 2% fetal calf serum. After collection of the bone marrow, the red blood cells will be lysed with a hypotonic solution (described above), mixed with 0.04% trypan blue and the number of nucleated cells was assessed by hematocytometer under light microscopy. Aliquots of cells were then resuspended at 1×10^6 cells/ml (GM and GEMM, bone marrow), 1.5×10^6 cells/ml (BFU-E, bone marrow). One hundred μ1 of each suspension was added to 900 μl of semisolid medium containing 0.9% methyl cellulose in Iscove's MDM, 15% fetal calf serum, 1% bovine serum albumin, 10 μg/ml bovine pancreatic insulin, 200 μg/ml human transferrin, 10^−4 M 2-mercaptoethanol, 2 mM glutamine, 10 ng/ml recombinant murine interleukin 3, 10 ng/ml recombinant human interleukin 6, 50 ng/ml recombinant murine stem cell factor and 3 units/ml erthropoietin. This mixture was then added to duplicate wells of a 24 well plate. The cultures were then placed at 37° C. in a humidified atmosphere of 5% CO2 in air. At day 14, the number of progenitor colonies formed was enumerated under phase contrast microscopy.
# The bone marrow cells were also cultured to assess the number of MSCs by a CFU—F assay. 2.5×10^5 cells/ml, 2 ml per well, were diluted into Mesencult medium (Stem Cell Technologies, Vancouver, BC, Canada) and 2 mL were placed in each well of a 24 well plate. The cultures were then incubated at 37° C. in a humidified atmosphere of 5% CO2 in air. At days 2, 5 and 8, the number of progenitor colonies formed was enumerated under phase contrast microscopy.
Molecule,% Displacement (Mas [1]),ability to enhance NO production (fluorescence) (Mas [2]; Mas-transfected CHO cells),"NO production with co-administration of A779 (Mas [2]; with A779, selective Mas antagonist, 1×10^−7 M)",bone marrow counts (db/db mice)
"CCCCOC(=O)NS(=O)(=O)c1ccc(OC(F)(F)F)cc1-c1ccc(CN2CCOCC2)cn1 [Compound 9, butyl (2-(5-(morpholinomethyl)pyridin-2-yl)-4-(trifluoromethoxy)phenyl)sulfonyl-carbamate]",17.3%,–,–,–
"CCCCOC(=O)NS(=O)(=O)c1ccc(OC(F)(F)F)cc1-c1ccc(CN2CCN(C)CC2)cn1 [Compound 10, butyl (2-(5-((4-methylpiperazin-1-yl)methyl)pyridin-2-yl)-4-(trifluoromethoxy)phenyl)sulfonylcarbamate]",22.0%,–,–,–
"CCCCOC(=O)NS(=O)(=O)c1ccc(OC(F)(F)F)cc1-c1ncc(Cn2ccnc2)s1 [Compound 11, butyl (2-(5-((1H-imidazol-1-yl)methyl)thiazol-2-yl)-4-(trifluoromethoxy)phenyl)sulfonylcarbamate]",23.0%,–,–,–
"CCCCOC(=O)NS(=O)(=O)c1ccc(OC(F)(F)F)cc1-c1ccc(CN2CCN(C)C2=O)cn1 [Compound 8, butyl (2-(5-((3-methyl-2-oxoimidazolidin-1-yl)methyl)pyridin-2-yl)-4-(trifluoromethoxy)phenyl) sulfonylcarbamate]",18.6%,–,–,–
"Asp-Arg-Val-Tyr-Ile-His-Pro [Ang(1-7), reference compound]",–,concentration dependent increase in NO,back to baseline fluorescence,increase bone marrow counts; also recorded: increased the bone marrow counts
